Measured values: US12655173B2, “Hybrid amide derivatives of amphotericin B” (priority 2020, dated 2026)
Values after ≈ are worked out from the molar mass of the structure shown.

Tests used:
[1] = tested on: Af F7075, azole resistant (G54E); assay: MIC against azole and echinocandin resistant fungal strains (CLSI); type: cell-based; settings: read-out: MIC Af F7075
Method: (§1) This experiment was performed following the standard CLSI protocol.

[2] = tested on: Af F16216, azole resistant (L98H + TR); assay: as above; type: cell-based; settings: read-out: MIC Af F16216
Method: as §1

Af 3626 (ATCC strain) = assay: as above; type: cell-based; settings: read-out: MIC Af 3626
Method: as §1

[3] = tested on: Af F16134, azole resistant (M220K); assay: as above; type: cell-based; settings: read-out: MIC Af F16134
Method: as §1

[4] = tested on: Af F14946, azole resistant (G138C); assay: as above; type: cell-based; settings: read-out: MIC Af F14946
Method: as §1

[5] = tested on: Af F12776, azole resistant (Y431C); assay: as above; type: cell-based; settings: read-out: MIC Af F12776
Method: as §1

[6] = tested on: EMFR-S678P, echinocandin resistant; assay: as above; type: cell-based; settings: read-out: MIC EMFR-S678P
Method: as §1

[7] = In vivo tolerance in mice: survival and distress; settings: tail vein, 24 h
[8] = In vivo toxicity in murine model: mice alive / distress-free; settings: 45 mg/kg IV, 24 h
CEA10 (clinical isolate) = assay: MIC against azole and echinocandin resistant fungal strains (CLSI); type: cell-based, A. funigatus; settings: read-out: MIC CEA10
Method: as §1

Q: With C[C@@H](c1ncncc1F)[C@](O)(Cn1cncn1)c1ccc(F)cc1F [Voriconazole] as the compound, how does the MIC [1] read?
A: The MIC was 5.73 µM (≈ 2 µg/mL).

Q: And the MIC [2]?
A: The MIC was greater than 11.5 µM.

Q: What about the MIC (Af 3626 (ATCC strain)) of the same compound?
A: The MIC was 0.72 µM (≈ 0.252 µg/mL).

Q: And the MIC [3]?
A: Its MIC is greater than 11.5 µM.

Q: What about the MIC [4] of the same compound?
A: The MIC was greater than 11.5 µM.

Q: What about the MIC [5] of the same compound?
A: Its MIC is greater than 11.5 µM.

Q: For CC[C@H](C)C[C@H](C)CCCCCCCCC(=O)N[C@H]1C[C@@H](O)[C@@H](NCCN)NC(=O)[C@@H]2[C@@H](O)CCN2C(=O)[C@H]([C@H](O)CCN)NC(=O)[C@H]([C@H](O)[C@@H](O)c2ccc(O)cc2)NC(=O)[C@@H]2C[C@@H](O)CN2C(=O)[C@H]([C@@H](C)O)NC1=O [Caspofungin], which MIC [1] is on record?
A: The MIC was 0.82 µM (≈ 0.897 µg/mL).

Q: And the MIC [2]?
A: Its MIC is 0.41 µM (≈ 0.448 µg/mL).

Q: What about the MIC (Af 3626 (ATCC strain)) of the same compound?
A: The MIC was 0.41 µM (≈ 0.448 µg/mL).

Q: And the MIC [6]?
A: Its MIC is greater than 3.3 µM.

Q: What about the MIC [3] of the same compound?
A: Its MIC is 0.21 µM (≈ 0.23 µg/mL).

Q: With C[C@H](CCC(=O)O)[C@H]1CC[C@H]2[C@@H]3CC[C@@H]4C[C@H](O)CC[C@]4(C)[C@H]3C[C@H](O)[C@]12C [Deoxycholate] as the compound, how does the Distressed ([7]; Dose 1 mg/kg) read?
A: The Distressed was 0/4.

Q: And the “Survival (alive/total)” value ([7]; Dose 1 mg/kg)?
A: Its value is 4/4.

Q: What about the Distressed ([7]; Dose 4 mg/kg) of the same compound?
A: Its Distressed is 0/4.

Q: And the “Survival (alive/total)” value ([7]; Dose 4 mg/kg)?
A: The value was 4/4.

Q: What about the Distressed ([7]; Dose 45 mg/kg) of the same compound?
A: The Distressed was 0/4.

Q: And the “Survival (alive/total)” value ([7]; Dose 45 mg/kg)?
A: The value was 4/4.

Q: Which “# of mice alive” value [8] does the source give for C[C@@H]1[C@H](O)[C@@H](C)/C=C/C=C/C=C/C=C/C=C/C=C/C=C/[C@H](O[C@@H]2O[C@H](C)[C@@H](O)[C@H](N)[C@H]2O)C[C@@H]2O[C@](O)(C[C@@H](O)C[C@@H](O)[C@H](O)CC[C@@H](O)C[C@@H](O)CC(=O)O[C@H]1C)C[C@H](O)[C@H]2C(=O)O [C2′epiAmB] here?
A: Its value is 4/4.

Q: What about the “# of mice distress-free” value [8] of the same compound?
A: Its value is 4/4.

Q: Which results are given for CC[C@@H]([C@H](C)O)n1ncn(-c2ccc(N3CCN(c4ccc(OC[C@@H]5CO[C@@](Cn6cncn6)(c6ccc(F)cc6F)C5)cc4)CC3)cc2)c1=O [Posaconazole]?
A: MIC (CEA10 (clinical isolate)): 0.18 µM (≈ 0.126 µg/mL); MIC [2]: 1.43 µM (≈ 1 µg/mL)
